Holding throughout (assay type): cell-based
One assay has as its target T1, AKT1 E17K (Homo sapiens, UniProt P31749, E17K).
T1 construct: expressed in transfected cells; host or cells: HEK293
In words: Live cell AKT1 E17K target engagement by NanoBRET competitive probe displacement. Conditions: HEK293 cells transfected with kinase-NanoLuciferase fusion, 2 h at 37° C. A digest of the protocol: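 Steps: overnight transfection of HEK293 with kinase-NanoLuc plasmids; addition of compound dilutions and tracer (~EC50); 2 h incubation at 37 °C; substrate plus extracellular luciferase inhibitor; luminescence at 460 and 600 nm. IC50 values came from fitting the BRET ratio to a Hill equation.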
(In general: Bioluminescence resonance energy transfer reports proximity on the nanometre scale.)

Another assay has as its target T2, AKT2 (Homo sapiens, UniProt P31751).
T2 construct: expressed in transfected cells; host or cells: HEK293
Briefly: Live cell AKT2 target engagement by NanoBRET competitive probe displacement. Conditions: HEK293 cells transfected with kinase-NanoLuciferase fusion, 2 h at 37° C. The protocol:
(§1) Determining Live Cell AKT1 E17K, AKT1 WT, and AKT2 Target Engagement by NanoBRET Competitive Probe Displacement.
(§2) Live cell target engagement assays were performed as described (Vasta, J. D. et al. Cell Chem Biol 2018, 25(11), 206-214). Briefly, HEK293 cells were transfected with plasmids encoding kinase-NanoLuciferase fusion proteins overnight. Cells were then treated with serial dilutions of compound and an ˜EC50 concentration of fluorescently-tagged ATP-competitive tracer (Promega). After incubation for 2 h at 37° C., luciferase substrate and extracellular luciferase inhibitor were added to all wells, and luminescent intensity at 460 nm and 600 nm were measured on a multimode plate-reader. The ratio of E600/E460 was calculated to give the tracer engagement signal (BRET). IC50 values were calculated by fitting BRET values to a log(inhibitor) vs. response Hill equation.

The target in another assay is T3, AKT1 WT (Homo sapiens, UniProt P31749).
T3 construct: expressed in transfected cells; host or cells: HEK293
T3 sequence (P31749 whole entry): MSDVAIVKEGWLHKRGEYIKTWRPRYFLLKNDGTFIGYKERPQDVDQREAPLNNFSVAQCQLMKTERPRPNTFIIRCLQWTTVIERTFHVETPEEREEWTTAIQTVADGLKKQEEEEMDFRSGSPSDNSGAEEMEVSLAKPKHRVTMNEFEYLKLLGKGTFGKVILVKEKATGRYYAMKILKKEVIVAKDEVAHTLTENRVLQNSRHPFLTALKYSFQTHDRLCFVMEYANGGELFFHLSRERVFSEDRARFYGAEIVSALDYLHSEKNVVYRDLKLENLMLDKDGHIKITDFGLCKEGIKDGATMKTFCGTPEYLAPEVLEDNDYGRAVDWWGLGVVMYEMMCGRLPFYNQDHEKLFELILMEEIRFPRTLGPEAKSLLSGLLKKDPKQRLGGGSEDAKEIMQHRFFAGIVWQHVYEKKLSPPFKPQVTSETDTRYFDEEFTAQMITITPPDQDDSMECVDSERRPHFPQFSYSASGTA
Briefly: Live cell AKT1 WT target engagement by NanoBRET competitive probe displacement. The conditions noted are these: HEK293 cells transfected with kinase-NanoLuciferase fusion, 2 h at 37° C. How it is done: as §1, §2

For assay [1], the system named is LAPC4 prostate cancer cells. In words: Antiproliferative effects in LAPC4 cells (CellTiter Glo). Conditions: LAPC4 cells (AKT1 E17K allele), 72 h, read-out: LAPC4 proliferation IC50. Summed up:
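Growth inhibition is gauged by intracellular ATP content, measured with CellTiter Glo 72 h after compound addition to 1,000 seeded cells per well. IC50 derives from a Hill equation fit.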
On the technique in general: ATP-based viability assays read luminescence as a measure of living cells.

T2 sequence (P31751 whole entry): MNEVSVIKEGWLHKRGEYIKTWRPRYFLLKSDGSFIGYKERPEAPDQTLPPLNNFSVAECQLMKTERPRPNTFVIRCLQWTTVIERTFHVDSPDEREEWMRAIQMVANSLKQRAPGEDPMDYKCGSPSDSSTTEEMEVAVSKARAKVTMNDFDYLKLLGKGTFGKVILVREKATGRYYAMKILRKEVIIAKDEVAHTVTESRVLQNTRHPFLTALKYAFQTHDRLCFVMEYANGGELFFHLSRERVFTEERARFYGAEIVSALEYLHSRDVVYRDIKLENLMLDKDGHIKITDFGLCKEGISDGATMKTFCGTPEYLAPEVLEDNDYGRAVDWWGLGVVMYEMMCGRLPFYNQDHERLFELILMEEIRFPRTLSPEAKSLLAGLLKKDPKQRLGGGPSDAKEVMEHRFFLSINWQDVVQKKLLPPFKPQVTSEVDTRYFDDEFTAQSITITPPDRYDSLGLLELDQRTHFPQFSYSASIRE
T1 sequence (P31749 whole entry E17K): as the sequence (P31749 whole entry) above, with E17K counted along it

As for `C=CC(=O)N1CCC(N[C@H]2CCc3cc(-n4c(-c5cccnc5N)nc5ccc(-n6cccn6)nc54)ccc32)CC1CC#N` (single isomer, unassigned) [Example 327, 2-((2*,4*)-1-acryloyl-4-(((S)-5-(2-(2-aminopyridin-3-yl)-5-(1H-pyrazol-1-yl)-3H-imidazo[4,5-b]pyridin-3-yl)-2,3-dihydro-1H-inden-1-yl)amino)piperidin-2-yl)acetonitrile], the results for the IC50 on AKT1 E17K, at AKT2 and on AKT1 WT were 25.2 nM, 99.4 nM and 204 nM, respectively.

Take `C=CC(=O)N1CCC(N[C@@H]2c3ccc(-n4c(-c5ccccc5)nc5ccc(-c6ccccc6)nc54)cc3CC2F)CC1` (single isomer, unassigned) [Example 325, 1-(4-{[(1R,2*)-5-{2,5-diphenylimidazo[4,5-b]pyridin-3-yl}-2-fluoro-2,3-dihydro-1H-inden-1-yl]amino}piperidin-1-yl)prop-2-en-1-one]: the IC50 on AKT1 E17K is 7.92 nM; at AKT2, 101 nM; on AKT1 WT, 298 nM.

Consider `C=CC(=O)N1CCC(N[C@@H]2c3ccc(-n4c(-c5ccccc5)nc5ccc(-c6ccccc6)nc54)cc3CC2F)CC1` (single isomer, unassigned) [Example 324, 1-(4-{[(1R,2*)-5-{2,5-diphenylimidazo[4,5-b]pyridin-3-yl}-2-fluoro-2,3-dihydro-1H-inden-1-yl]amino}piperidin-1-yl)prop-2-en-1-one], for which the figures for the IC50 at AKT1 E17K, at AKT2 and on AKT1 WT were 16.3 nM, 88.1 nM and 396 nM, respectively.

As for `C=CC(=O)N1CCC(NC2c3ccc(-n4c(-c5cccnc5N)nc5ccc(-n6ccc(C7CC7)n6)nc54)cc3CC2F)CC1C(F)F` (single isomer, unassigned) [Example 335, 1-((2*,4*)-4-(((1*,2*)-5-(2-(2-aminopyridin-3-yl)-5-(3-cyclopropyl-1H-pyrazol-1-yl)-3H-imidazo[4,5-b]pyridin-3-yl)-2-fluoro-2,3-dihydro-1H-inden-1-yl)amino)-2-(difluoromethyl)piperidin-1-yl)prop-2-en-1-one], the IC50 turned out to be 9.48 nM at AKT1 E17K, 28.3 nM at AKT2 and 288 nM at AKT1 WT.

Turning to `C=CC(=O)N1CCC(N[C@H]2CCc3cc(-n4c(-c5cccnc5N)nc5ccc(-n6cccn6)nc54)ccc32)CC1CC#N` (single isomer, unassigned) [Example 326, 2-((2*,4*)-1-acryloyl-4-(((S)-5-(2-(2-aminopyridin-3-yl)-5-(1H-pyrazol-1-yl)-3H-imidazo[4,5-b]pyridin-3-yl)-2,3-dihydro-1H-inden-1-yl)amino)piperidin-2-yl)acetonitrile], the IC50 is 7.25 nM on AKT1 E17K, 29.3 nM at AKT2 and 98.8 nM on AKT1 WT.

In the case of `C=CC(=O)N1CCC(N[C@@H]2c3ccc(-n4c(-c5ccccc5)nc5ccc(-n6cccn6)nc54)cc3CC2F)CC1C(F)F` (single isomer, unassigned) [Example 330, 1-((2*,4*)-2-(difluoromethyl)-4-(((1R,2*)-2-fluoro-5-(2-phenyl-5-(1H-pyrazol-1-yl)-3H-imidazo[4,5-b]pyridin-3-yl)-2,3-dihydro-1H-inden-1-yl)amino)piperidin-1-yl)prop-2-en-1-one], the IC50 turned out to be 31 nM at AKT1 E17K, 69.3 nM at AKT2 and 1480 nM on AKT1 WT.

Take `C=CC(=O)N1CCC(N[C@@H]2c3ccc(-n4c(-c5ccccc5)nc5ccc(-n6cccn6)nc54)cc3CC2F)CC1C(F)F` (single isomer, unassigned) [Example 329, 1-((2*,4*)-2-(difluoromethyl)-4-(((1R,2*)-2-fluoro-5-(2-phenyl-5-(1H-pyrazol-1-yl)-3H-imidazo[4,5-b]pyridin-3-yl)-2,3-dihydro-1H-inden-1-yl)amino)piperidin-1-yl)prop-2-en-1-one]: the figures for the IC50 on AKT1 E17K, on AKT2 and at AKT1 WT were 5.37 nM, 17.9 nM and 156 nM, respectively.

Regarding `C=CC(=O)N1CCC(N[C@@H]2c3ccc(-n4c(-c5ccccc5)nc5ccc(-n6cccn6)nc54)cc3CC2F)CC1C(F)F` (single isomer, unassigned) [Example 331, 1-((2*,4*)-2-(difluoromethyl)-4-(((1R,2*)-2-fluoro-5-(2-phenyl-5-(1H-pyrazol-1-yl)-3H-imidazo[4,5-b]pyridin-3-yl)-2,3-dihydro-1H-inden-1-yl)amino)piperidin-1-yl)prop-2-en-1-one], the IC50 at AKT1 E17K worked out at 18.1 nM; at AKT2, 128 nM; at AKT1 WT it was 807 nM.

With `C=CC(=O)N1C[C@@H]2[C@H](C1)[C@@H]2NC1CCc2cc(-n3c(-c4cccnc4N)nc4ccc(-n5cccn5)nc43)ccc21` (stereo partly drawn) [Example 345, 1-[(1R,5S,6R)-6-({5-[2-(2-aminopyridin-3-yl)-5-(pyrazol-1-yl)imidazo[4,5-b]pyridin-3-yl]-2,3-dihydro-1H-inden-1-yl}amino)-3-azabicyclo[3.1.0]hexan-3-yl]prop-2-en-1-one], the IC50 on AKT1 E17K came to 34 nM; at AKT2 it was 63.5 nM; at AKT1 WT it was 268 nM.

With `C=CC(=O)N1CCC(CC2CCc3cc(-n4c(-c5cccnc5N)nc5ccc(-n6cccn6)nc54)ccc32)CC1` (single isomer, unassigned) [Example 344, 1-(4-(((*)-5-(2-(2-aminopyridin-3-yl)-5-(1H-pyrazol-1-yl)-3H-imidazo[4,5-b]pyridin-3-yl)-2,3-dihydro-1H-inden-1-yl)methyl)piperidin-1-yl)prop-2-en-1-one], the IC50 at AKT1 E17K stood at 21.4 nM; at AKT2, 549 nM; at AKT1 WT it was 418 nM.

As for `C=CC(=O)N1CCC(N[C@@H]2c3ccc(-n4c(-c5ccccc5)nc5ccc(-n6cccn6)nc54)cc3CC2F)CC1` (single isomer, unassigned) [Example 250, 1-(4-(((1R,2*)-2-fluoro-5-(2-phenyl-5-(1H-pyrazol-1-yl)-3H-imidazo[4,5-b]pyridin-3-yl)-2,3-dihydro-1H-inden-1-yl)amino)piperidin-1-yl)prop-2-en-1-one], the values for the IC50 (on AKT1 E17K; at AKT2; in assay [1]) were 14.7 nM, 134 nM and 559 nM, respectively.

For the compound `C=CC(=O)N1CCC(N[C@@H]2c3ccc(-n4c(-c5cccnc5N)nc5ccc(-n6ccc(C7CC7)n6)nc54)cc3CC2F)CC1C(F)F` (single isomer, unassigned) [Example 334, 1-((2*,4*)-4-(((1*,2*)-5-(2-(2-aminopyridin-3-yl)-5-(3-cyclopropyl-1H-pyrazol-1-yl)-3H-imidazo[4,5-b]pyridin-3-yl)-2-fluoro-2,3-dihydro-1H-inden-1-yl)amino)-2-(difluoromethyl)piperidin-1-yl)prop-2-en-1-one], the IC50 came to 6.75 nM at AKT1 E17K, 23.5 nM at AKT2 and 137 nM at AKT1 WT.

For `C=CC(=O)N1CCC(N[C@@H]2c3ccc(-n4c(-c5cccnc5N)nc5ccc(C6CC6)nc54)cc3CC2F)CC1` (single isomer, unassigned) [Example 203, 1-(4-(((1R,2*)-5-(2-(2-aminopyridin-3-yl)-5-cyclopropyl-3H-imidazo[4,5-b]pyridin-3-yl)-2-fluoro-2,3-dihydro-1H-inden-1-yl)amino)piperidin-1-yl)prop-2-en-1-one], the IC50 on AKT1 E17K came out at 32.2 nM; at AKT2, 874 nM; in assay [1], 1760 nM.

For `C=CC(=O)N1CCC(N[C@@H]2c3ccc(-n4c(-c5ccccc5F)nc5ccc(-n6cccn6)nc54)cc3CC2F)C[C@H]1C` (single isomer, unassigned) [Example 318, 1-((2R,4*)-4-(((1R,2*)-2-fluoro-5-(2-(2-fluorophenyl)-5-(1H-pyrazol-1-yl)-3H-imidazo[4,5-b]pyridin-3-yl)-2,3-dihydro-1H-inden-1-yl)amino)-2-methylpiperidin-1-yl)prop-2-en-1-one], the IC50 on AKT1 E17K was found to be 29.7 nM; on AKT2, 111 nM; in assay [1], 626 nM.

`C=CC(=O)N1CCC(N[C@@H]2c3ccc(-n4c(-c5ccccc5F)nc5ccc(-n6cccn6)nc54)cc3CC2F)C[C@H]1C` (single isomer, unassigned) [Example 316, 1-((2R,4*)-4-(((1R,2*)-2-fluoro-5-(2-(2-fluorophenyl)-5-(1H-pyrazol-1-yl)-3H-imidazo[4,5-b]pyridin-3-yl)-2,3-dihydro-1H-inden-1-yl)amino)-2-methylpiperidin-1-yl)prop-2-en-1-one]: the IC50 on AKT1 E17K was 19.2 nM; at AKT2, 112 nM; in assay [1], 540 nM.

In the case of `C=C(F)C(=O)N1CCC(N[C@H]2CCc3cc(-n4c(-c5cccnc5N)nc5ccc(-n6cccn6)nc54)ccc32)CC1` [Example 46, 1-(4-{[(1S)-5-[2-(2-aminopyridin-3-yl)-5-(pyrazol-1-yl)imidazo[4,5-b]pyridin-3-yl]-2,3-dihydro-1H-inden-1-yl]amino}piperidin-1-yl)-2-fluoroprop-2-en-1-one], the IC50 at AKT2 was more than 10000 nM; at AKT1 WT it was 726 nM.
